Species: Rattus norvegicus
Assay: Open TG-GATES - Regimen: Daily Repeat
Type: toxicity, organism-based, Sprague-Dawley
Parameters: regimen Daily Repeat, gender Male, age 6 weeks
Settings: in vivo, po, 100 mg/kg, route gavage, dose level Middle; for APTT / Bas / Eos / Fbg / Hb / Ht / Lym / MCH / MCHC / MCV / Mono / Neu / PT / Plat / RBC / Ret / WBC: tissue Blood; for KIDNEY_L / KIDNEY_R / KIDNEY_TOTAL: tissue Kidney; for LIVER: tissue Liver; for A/G / ALP / ALT / AST / BUN / CRE / Ca / Cl / DBIL / GLC / IP / K / LDH / Na / PL / RALB / TBIL / TC / TG / TP / gamma-GTP: tissue Plasma

With `CCOC(=O)C(C)(C)Oc1ccc(Cl)cc1` [CLOFIBRATE] the TERMINAL_BW (72 h, time 3 day) was 242.5 g, the APTT (72 h, time 3 day) was 18.9 s and the Bas (72 h, time 3 day) was 0%. The Eos (72 h, time 3 day) was 1%, the Fbg (72 h, time 3 day) was 210.8 mg/dL and the Hb (72 h, time 3 day) was 13.4 g/dL. It also gave a Ht (72 h, time 3 day) of 38.4%, a Lym (72 h, time 3 day) of 80.2% and an MCH (72 h, time 3 day) of 21.6 pg. The MCHC (72 h, time 3 day) was 35%, the MCV (72 h, time 3 day) was 61.8 fL and the Mono (72 h, time 3 day) was 2.6%. It also gave a Neu (72 h, time 3 day) of 15.6%, a PT (72 h, time 3 day) of 12.4 s and a Plat (72 h, time 3 day) of 131.7 x10_4/uL. For the same molecule, the RBC (72 h, time 3 day) was 621.6 x10_4/ul, the Ret (72 h, time 3 day) was 4.9% and the WBC (72 h, time 3 day) was 117.6 x10_2/uL. For the same molecule, the KIDNEY_L (72 h, time 3 day) was 1.1 g, the KIDNEY_R (72 h, time 3 day) was 1.1 g and the KIDNEY_TOTAL (72 h, time 3 day) was 2.2 g. It also gave an LIVER (72 h, time 3 day) of 12.5 g, an A/G (72 h, time 3 day) of 1.7 and an ALP (72 h, time 3 day) of 1054.4 IU/L. The ALT (72 h, time 3 day) was 38.2 IU/L, the AST (72 h, time 3 day) was 70.2 IU/L and the BUN (72 h, time 3 day) was 16 mg/dL. It also gave a CRE (72 h, time 3 day) of 0.4 mg/dL, a Ca (72 h, time 3 day) of 10.8 mg/dL and a Cl (72 h, time 3 day) of 102.6 meq/L. It also gave a DBIL (72 h, time 3 day) of 0.076 mg/dL, a GLC (72 h, time 3 day) of 198.4 mg/dL and an IP (72 h, time 3 day) of 6.3 mg/dL. It also gave a K (72 h, time 3 day) of 4 meq/L, an LDH (72 h, time 3 day) of 215 IU/L and a Na (72 h, time 3 day) of 141 meq/L. It also gave a PL (72 h, time 3 day) of 120 mg/dL, an RALB (72 h, time 3 day) of 3.4 g/dL and a TBIL (72 h, time 3 day) of 0.1 mg/dL. The TC (72 h, time 3 day) was 55.6 mg/dL, the TG (72 h, time 3 day) was 82.4 mg/dL and the TP (72 h, time 3 day) was 5.4 g/dL. For the same molecule, the gamma-GTP (72 h, time 3 day) was 0.6 IU/L, the TERMINAL_BW ([…], time 7 day) was 270.9 g and the TERMINAL_BW ([…], time 14 day) was 321.6 g. It also gave a TERMINAL_BW ([…], time 28 day) of 398.1 g, an APTT ([…], time 7 day) of 22.7 s and a Bas ([…], time 7 day) of 0%. It also gave an Eos ([…], time 7 day) of 1%, a Fbg ([…], time 7 day) of 200.6 mg/dL and a Hb ([…], time 7 day) of 14 g/dL. It also gave a Ht ([…], time 7 day) of 40%, a Lym ([…], time 7 day) of 79.2% and an MCH ([…], time 7 day) of 21.2 pg. The MCHC ([…], time 7 day) was 35.1%, the MCV ([…], time 7 day) was 60.5 fL and the Mono ([…], time 7 day) was 3%. The Neu ([…], time 7 day) was 16.6%, the PT ([…], time 7 day) was 12.4 s and the Plat ([…], time 7 day) was 132.4 x10_4/uL. The RBC ([…], time 7 day) was 660.6 x10_4/ul, the Ret ([…], time 7 day) was 4.9% and the WBC ([…], time 7 day) was 99.6 x10_2/uL. The APTT ([…], time 14 day) was 20.3 s, the Bas ([…], time 14 day) was 0% and the Eos ([…], time 14 day) was 1%. The Fbg ([…], time 14 day) was 204.2 mg/dL, the Hb ([…], time 14 day) was 13.6 g/dL and the Ht ([…], time 14 day) was 39.5%. For the same molecule, the Lym ([…], time 14 day) was 81.8%, the MCH ([…], time 14 day) was 20 pg and the MCHC ([…], time 14 day) was 34.3%. It also gave an MCV ([…], time 14 day) of 58.2 fL, a Mono ([…], time 14 day) of 2.6% and a Neu ([…], time 14 day) of 14.2%. It also gave a PT ([…], time 14 day) of 12.7 s, a Plat ([…], time 14 day) of 130.4 x10_4/uL and an RBC ([…], time 14 day) of 679 x10_4/ul. It also gave a Ret ([…], time 14 day) of 4.2%, a WBC ([…], time 14 day) of 153.1 x10_2/uL and an APTT ([…], time 28 day) of 21.7 s. It also gave a Bas ([…], time 28 day) of 0%, an Eos ([…], time 28 day) of 1.2% and a Fbg ([…], time 28 day) of 211.2 mg/dL. It also gave a Hb ([…], time 28 day) of 14.7 g/dL, a Ht ([…], time 28 day) of 41.8% and a Lym ([…], time 28 day) of 83.8%. For the same molecule, the MCH ([…], time 28 day) was 19.1 pg, the MCHC ([…], time 28 day) was 35.1% and the MCV ([…], time 28 day) was 54.3 fL. The Mono ([…], time 28 day) was 2%, the Neu ([…], time 28 day) was 12.8% and the PT ([…], time 28 day) was 12.1 s. The Plat ([…], time 28 day) was 110.4 x10_4/uL, the RBC ([…], time 28 day) was 769.4 x10_4/ul and the Ret ([…], time 28 day) was 2.1%. For the same molecule, the WBC ([…], time 28 day) was 141.2 x10_2/uL, the KIDNEY_L ([…], time 7 day) was 1.1 g and the KIDNEY_R ([…], time 7 day) was 1.2 g. For the same molecule, the KIDNEY_TOTAL ([…], time 7 day) was 2.3 g, the KIDNEY_L ([…], time 14 day) was 1.3 g and the KIDNEY_R ([…], time 14 day) was 1.3 g. For the same molecule, the KIDNEY_TOTAL ([…], time 14 day) was 2.6 g, the KIDNEY_L ([…], time 28 day) was 1.5 g and the KIDNEY_R ([…], time 28 day) was 1.5 g. For the same molecule, the KIDNEY_TOTAL ([…], time 28 day) was 3 g, the LIVER ([…], time 7 day) was 14.5 g and the LIVER ([…], time 14 day) was 17 g. The LIVER ([…], time 28 day) was 20.1 g, the A/G ([…], time 7 day) was 1.9 and the ALP ([…], time 7 day) was 856.8 IU/L. It also gave an ALT ([…], time 7 day) of 32.8 IU/L, an AST ([…], time 7 day) of 61 IU/L and a BUN ([…], time 7 day) of 16.8 mg/dL. The CRE ([…], time 7 day) was 0.4 mg/dL, the Ca ([…], time 7 day) was 10.4 mg/dL and the Cl ([…], time 7 day) was 102.8 meq/L. For the same molecule, the DBIL ([…], time 7 day) was 0.07 mg/dL, the GLC ([…], time 7 day) was 211.2 mg/dL and the IP ([…], time 7 day) was 7.3 mg/dL. It also gave a K ([…], time 7 day) of 3.5 meq/L, an LDH ([…], time 7 day) of 207.2 IU/L and a Na ([…], time 7 day) of 141 meq/L. For the same molecule, the PL ([…], time 7 day) was 108.8 mg/dL, the RALB ([…], time 7 day) was 3.7 g/dL and the TBIL ([…], time 7 day) was 0.1 mg/dL. For the same molecule, the TC ([…], time 7 day) was 49.8 mg/dL, the TG ([…], time 7 day) was 53.4 mg/dL and the TP ([…], time 7 day) was 5.6 g/dL. The gamma-GTP ([…], time 7 day) was 1 IU/L, the A/G ([…], time 14 day) was 1.7 and the ALP ([…], time 14 day) was 933 IU/L. For the same molecule, the ALT ([…], time 14 day) was 38.4 IU/L, the AST ([…], time 14 day) was 63.4 IU/L and the BUN ([…], time 14 day) was 16.4 mg/dL. For the same molecule, the CRE ([…], time 14 day) was 0.4 mg/dL, the Ca ([…], time 14 day) was 10.2 mg/dL and the Cl ([…], time 14 day) was 101.8 meq/L. The DBIL ([…], time 14 day) was 0.06 mg/dL, the GLC ([…], time 14 day) was 223.8 mg/dL and the IP ([…], time 14 day) was 6.1 mg/dL. It also gave a K ([…], time 14 day) of 3.8 meq/L, an LDH ([…], time 14 day) of 183.8 IU/L and a Na ([…], time 14 day) of 140.4 meq/L. The PL ([…], time 14 day) was 120.2 mg/dL, the RALB ([…], time 14 day) was 3.5 g/dL and the TBIL ([…], time 14 day) was 0.1 mg/dL. It also gave a TC ([…], time 14 day) of 55 mg/dL, a TG ([…], time 14 day) of 63.4 mg/dL and a TP ([…], time 14 day) of 5.6 g/dL. For the same molecule, the gamma-GTP ([…], time 14 day) was 1 IU/L, the A/G ([…], time 28 day) was 1.7 and the ALP ([…], time 28 day) was 726.6 IU/L. For the same molecule, the ALT ([…], time 28 day) was 38.2 IU/L, the AST ([…], time 28 day) was 71 IU/L and the BUN ([…], time 28 day) was 15.8 mg/dL. The CRE ([…], time 28 day) was 0.4 mg/dL, the Ca ([…], time 28 day) was 10.5 mg/dL and the Cl ([…], time 28 day) was 102.4 meq/L. The DBIL ([…], time 28 day) was 0.08 mg/dL, the GLC ([…], time 28 day) was 208.6 mg/dL and the IP ([…], time 28 day) was 6.1 mg/dL. The K ([…], time 28 day) was 3.6 meq/L, the LDH ([…], time 28 day) was 236.8 IU/L and the Na ([…], time 28 day) was 141 meq/L. For the same molecule, the PL ([…], time 28 day) was 132 mg/dL, the RALB ([…], time 28 day) was 3.8 g/dL and the TBIL ([…], time 28 day) was 0.1 mg/dL. For the same molecule, the TC ([…], time 28 day) was 54.8 mg/dL, the TG ([…], time 28 day) was 106.2 mg/dL and the TP ([…], time 28 day) was 6 g/dL. For the same molecule, the gamma-GTP ([…], time 28 day) was 1 IU/L.
